Reference: patent US8388931B2, “99m Tc-labeled triphenylphosphonium derivative contrasting agents and molecular probes for early detection and imaging of breast tumors” (priority 2008, dated 2013)

Columns and labels:
[1] = Comparative study: myocardial and hepatic uptake of 99mTc-MIBI versus 99mTc-Mito10-MAG3; format: in vivo, rats; settings: rat, in vivo
Description: (§1) ^99mTc-MIBI of clinical formulation was purchased from Bristol Myers Squibb. […] Dynamic images were acquired in identical fashion following 99mTc-MIBI injection.
In a comparative study, the myocardial uptake of ^99mTc-MIBI peaked at 2.70±0.4% ID/g within minutes after injection, and remained above 2.41±0.3% ID/g for at least 90 min. Comparatively, the myocardial uptake level of ^99mTc-Mito10-MAG 3 is 10, 40, and 120 fold lower than the uptake level of ^99mTc-MIBI at 3, 10 and 30 min after injection. The hepatic uptake of ^99mTc-MIBI was at 0.37±0.14% ID/g at 30 min after injection.

[2] = system: DMBA-induced breast carcinoma; assay: In vivo gamma camera imaging of DMBA-induced breast carcinoma in rats; parameters: species or system rats (female Sprague Dawley); settings: longitudinal experiment, at the time of detection
Description: The animal protocol was approved by institutional IACUC review and followed NIH guidelines. The rat model of DMBA-induced breast carcinoma was used.
As an initial feasibility study, rats were induced with 65 mg/kg DMBA dissolved in sesame oil via a single oral gavage to the stomach. […] Static images were acquired on a GE XRT gamma camera using a high-resolution parallel-hole collimator, 512×512 matrix size, 22.5×22.5 cm field of view, 140±15 keV energy window, 100 k counts. Unexpectedly, apart from the established palpable carcinomas, additional small (millimeter size) tumors were discovered by this imaging technique in the same animals. This finding promoted a longitudinal study to investigate the early detection of neoplastic growth using ^99mTc-Mito10-MAG3.
Six 48-day-old female rats were injected with 65 mg/kg DMBA. At each week after DMBA induction, the rats were imaged using the following protocol. Each rat was anesthetized with 1.6% isoflurane in room air supplemented with oxygen. […] Dynamic images were continuously acquired at one frame per min for 90 min using the imaging parameters set forth hereinabove. The weekly imaging regiment was continued for all six rats until palpable tumors became detectable, which typically takes place between seven to nine weeks after the administration of DMBA. Due to the relatively short physical half-life of ^99mTc (6 hr), no residual signal, therefore, no cross-contamination is detectable from the previous injection the week before.
as §1
The female Sprague Dawley rats have six pairs of mammary glands, among which glands a and b are away from the hepatic/gastrointestinal region. (FIG. 9, Panel A). Since the typical biodistribution of a lipophilic radiopharmaceutical in the abdominal region precludes reliable imaging of breast tissues below the diaphragm, mammary glands shown in Panels C, D, E and F were excluded from the data analysis. This exclusion also was based on the fact that such spatial distribution of mammary glands is irrelevant to that of the human anatomy.
Imaging data analysis was carried out using an inbuilt software, by carefully drawing a region of interest (ROI) on the tumor site to determine the radioactivity counts in the ROI. […] Radioactivity counts were determined in each ROI. Tumor-to-normal and tumor-to-muscle ratios were calculated as the count ratio between the two ROIs.
The rats were sacrificed by CO2 asphyxiation and the number and location of the mammary tumors were recorded at necropsy. The tumors were dissected, with the diameter and weight measured and documented. […]

peak myocardial uptake [1]: 2.70±0.4 % ID/g
SMILES: [99Tc].[C-]#[N+]CC(C)(C)OC.[C-]#[N+]CC(C)(C)OC.[C-]#[N+]CC(C)(C)OC.[C-]#[N+]CC(C)(C)OC.[C-]#[N+]CC(C)(C)OC.[C-]#[N+]CC(C)(C)OC [^99mTc-MIBI, ^99mTc-methoxyisobutylisonitrile, reference compound]
tumor-to-normal ratio ([2]; ROI count ratio tumor vs contralateral normal mammary gland): 2.04±0.49 | tumor-to-muscle ratio ([2]; ROI count ratio tumor vs thigh muscle): 5.10±0.31
